Like-named read-outs stand apart in the source and are kept apart here.
Assays:
5′XCGCGCG3′ = experiment: Dangling end stacking in 6-bp self-complementary DNA (Table S3); format: physicochemical; conditions: for ΔG°37 (Van't Hoff) / ΔG°37 (avg.) / ΔG°37 (fits) / ΔH° (van't Hoff) / ΔS° (Van't Hoff) / Tm: 5′XCGCGCG3′ dangling base; for Tm: 1 M NaCl, 10 mM phosphate buffer (pH 7.0), 0.1 mM EDTA, 5.0 μM; for stacks more favorably than parent hydrocarbon: ^FB vs B, ^FI vs I
Protocol: To seek evidence for the origins of this selectivity, we examined individual properties of the four nonpolar nucleoside analogues. Stacking was evaluated by the standard dangling end approach using a 6-bp self-complementary DNA.
Calculations. […] (Table 4 and Table 5)

[1] = Octanol-water partitioning of free nucleosides
Protocol: We explicitly examined hydrophobicity of the four nucleosides by partitioning between 1-octanol and water.
Octanol-water partitioning. The experimental solvent partitioning studies for free nucleosides were carried out as described. Experiments were carried out in triplicate and the results averaged to increase accuracy.

XTGAGCTCA = experiment: Dangling-end thermal denaturation, sequence XTGAGCTCA (Table 2); format: physicochemical
Protocol: (§1) The dangling-end experimental method was utilized to evaluate the ability of the fluorinated aromatic base analogues to stabilize DNA duplexes when substituted directly adjacent to the helix. The relative stabilizations were measured by comparison of the energetics for helix—coil melting transition of the “core “duplex (lacking any “dangling “nucleotide) to that containing the extra nucleotide. Five short self-complementary sequence contexts were used; the sequences were chosen because they had been shown previously to be well-behaved thermodynamically in the dangling-end configuration. Data from two of the contexts are shown in Table 1, and data for the remaining three show similar trends. By use of these five contexts we were able to compare stacking effects of the base analogues with all four neighboring DNA bases in the helix.
(§2) Methods for thermodynamic measurements. Thermal denaturation. […] Solutions were then heated to 90° C. for 5 minutes and annealed by slowly cooling to room temperature and then to 0° C.

XAGCGCT = experiment: Dangling-end thermal denaturation, sequence XAGCGCT (Table 2); format: physicochemical
Protocol: as §1, §2

XACAGCTGT = experiment: Dangling-end thermal denaturation, sequence XACAGCTGT (Table 1); format: physicochemical; conditions: for Tm: 1 M NaCl, 10 mM sodium phosphate pH 7.0, 5.0 μM DNA-strand; for ΔΔG stacking: difference from core duplex; for ΔTm: vs core duplex
Protocol: (§3) The dangling-end experimental method was utilized to evaluate the ability of the fluorinated aromatic base analogues to stabilize DNA duplexes when substituted directly adjacent to the helix. The relative stabilizations were measured by comparison of the energetics for helix-coil melting transition of the “core “duplex (lacking any “dangling “nucleotide) to that containing the extra nucleotide. Five short self-complementary sequence contexts were used; the sequences were chosen because they had been shown previously to be well-behaved thermodynamically in the dangling-end configuration. Data from two of the contexts are shown in Table 1, and data for the remaining three show similar trends. By use of these five contexts we were able to compare stacking effects of the base analogues with all four neighboring DNA bases in the helix. Methods for thermodynamic measurements. Thermal denaturation. […] Solutions were then heated to 90° C. for 5 minutes and annealed by slowly cooling to room temperature and then to 0° C. […] Calculations.

XGTAGCTAC = experiment: Dangling-end thermal denaturation, sequence XGTAGCTAC (Table 2); format: physicochemical
Protocol: as §1, §2

(dCGCGCG)2 core duplex = experiment: Dangling-end thermal denaturation, sequence XCGCGCG (Table 1); format: physicochemical; conditions: for ΔΔG stacking (stability contributed): (dCGCGCG)2 core duplex; for Tm / −ΔG37 / −ΔH / −ΔS / ΔΔG stacking / ΔTm: XCGCGCG; for Tm: 1 M NaCl, 10 mM sodium phosphate pH 7.0, 5.0 μM DNA-strand; for ΔΔG stacking: difference from core duplex; for ΔTm: vs core duplex
Protocol: as §3

[2] = average from fits to individual melting curves
[3] = 2,4,6- vs 2,4,5-substituted case

Row | Compound | −G37 (XTGAGCTCA; marker c) | −H (XTGAGCTCA; marker c) | −S (XTGAGCTCA; marker c) | −G37 (XTGAGCTCA; marker d) | Tm (XACAGCTGT) | −ΔG37 (XACAGCTGT; Van't Hoff plots) | −ΔH (XACAGCTGT; Van't Hoff plots) | −ΔS (XACAGCTGT; Van't Hoff plots) | −ΔG37 (XACAGCTGT; [2]) | ΔΔG stacking (XACAGCTGT) | ΔTm (XACAGCTGT) | −H (XGTAGCTAC; marker c) | −S (XGTAGCTAC; marker c) | Tm ((dCGCGCG)2 core duplex) | −ΔG37 ((dCGCGCG)2 core duplex; Van't Hoff plots) | −ΔH ((dCGCGCG)2 core duplex; Van't Hoff plots) | −ΔS ((dCGCGCG)2 core duplex; Van't Hoff plots) | −ΔG37 ((dCGCGCG)2 core duplex; [2]) | ΔΔG stacking ((dCGCGCG)2 core duplex) | ΔTm ((dCGCGCG)2 core duplex) | further results
1 | 1′,2′-dideoxy-β-1′-(N-indole)-D-ribofuranose [reference compound] |  |  |  |  |  |  |  |  |  |  |  |  |  |  |  |  |  |  |  |  | ΔG°37 (Van't Hoff) (5′XCGCGCG3′): -10.2 ± 0.3 kcal; ΔG°37 (avg.) (5′XCGCGCG3′): -10.0 ± 0.2 kcal; ΔG°37 (fits) (5′XCGCGCG3′): -9.9 ± 0.1 kcal; ΔH° (van't Hoff) (5′XCGCGCG3′): -60.2 kcal; ΔS° (Van't Hoff) (5′XCGCGCG3′): −161 eu; Tm (5′XCGCGCG3′): 51.6 °C; log P ([1]; free nucleoside, 1-octanol and water, triplicate): 0.99 (0.10)
2 | OC[C@H]1O[C@@H](c2cc(F)c(F)c(F)c2F)C[C@@H]1O [2,3,4,5-tetrafluorophenyl, 1′,2′-dideoxy-β-1′-(2,3,4,5-tetrafluorophenyl)-D-ribofuranose] | 9.1 kcal | 51.9 kcal | 138 eu | 9.2 kcal | 50.9 °C | 10.7 ± 0.2 kcal | 76.3 kcal | 212 eu | 9.8 ± 0.2 kcal | 2.3 ± 0.2 | 10.0 °C | 57.0 kcal | 156 eu | 53.9 °C | 10.3 ± 0.2 kcal | 53.8 kcal | 93 eu | 10.2 ± 0.2 kcal | 2.2 ± 0.2 | 12.6 °C | ΔG°37 (Van't Hoff) (5′XCGCGCG3′): -10.3 ± 0.2 kcal; ΔG°37 (avg.) (5′XCGCGCG3′): -10.2 ± 0.2 kcal; ΔG°37 (fits) (5′XCGCGCG3′): -10.2 ± 0.2 kcal; ΔH° (van't Hoff) (5′XCGCGCG3′): -53.8 kcal; ΔS° (Van't Hoff) (5′XCGCGCG3′): −93 eu; Tm (5′XCGCGCG3′): 53.9 °C; stacks more favorably than parent hydrocarbon (5′XCGCGCG3′): 1.0 kcal/mol; G stacking (XTGAGCTCA): 1.5; G stacking (XAGCGCT): 1.4; −G37 (XAGCGCT; marker c): 8.3 kcal; −H (XAGCGCT; marker c): 48.4 kcal; −S (XAGCGCT; marker c): 129 eu; −G37 (XAGCGCT; marker d): 8.3 kcal; log P [1]: 1.39 (0.10); G stacking (XGTAGCTAC): 1.7; −G37 (XGTAGCTAC; marker c): 8.8 kcal; −G37 (XGTAGCTAC; marker d): 8.8 kcal; ΔΔG stacking (stability contributed) ((dCGCGCG)2 core duplex): −2.2 kcalmol^−1
3 | OCC1OC(c2cc(F)c(F)cc2F)CC1O (stereo not drawn) [2,4,5-trifluorophenyl] | 9.2 kcal | 53.8 kcal | 144 eu | 9.1 kcal | 48.9 °C | 10.1 ± 0.2 kcal | 67.8 kcal | 186 eu | 9.7 ± 0.1 kcal | 1.9 ± 0.2 | 9.0 °C | 72.5 kcal | 204 eu | 52.2 °C | 10.1 ± 0.3 kcal | 55.0 kcal | 145 eu | 10.0 ± 0.1 kcal | 2.0 ± 0.2 | 10.8 °C | G stacking (XTGAGCTCA): 1.5; −G37 (XGTAGCTAC; marker d): 9.1 kcal
4 | OC[C@H]1OC(c2ccc(F)cc2)C[C@@H]1O (stereo partly drawn) [4-fluorophenyl, 1′-(4-fluorophenyl)-2′-deoxy-D-ribose] |  |  |  |  | 48.7 °C | 9.9 ± 0.1 kcal | 66.6 kcal | 183 eu | 9.6 ± 0.1 kcal | 1.8 ± 0.1 | 8.7 °C |  |  | 51.2 °C | 10.3 ± 0.3 kcal | 64.9 kcal | 175 eu | 9.9 ± 0.2 kcal | 2.0 ± 0.2 | 9.8 °C | 
5 | OC[C@H]1O[C@@H](n2ccc3c(F)c(F)c(F)c(F)c32)C[C@@H]1O [^FI, 1′,2′-dideoxy-β-1′-(N-4,5,6,7-tetrafluoroindole)-D-ribofuranose] |  |  |  |  |  |  |  |  |  |  |  |  |  |  |  |  |  |  |  |  | ΔG°37 (Van't Hoff) (5′XCGCGCG3′): -11.1 ± 0.2 kcal; ΔG°37 (avg.) (5′XCGCGCG3′): -11.2 ± 0.2 kcal; ΔG°37 (fits) (5′XCGCGCG3′): -11.3 ± 0.2 kcal; ΔH° (van't Hoff) (5′XCGCGCG3′): -52.6 kcal; ΔS° (Van't Hoff) (5′XCGCGCG3′): −134 eu; Tm (5′XCGCGCG3′): 59.3 °C; stacks more favorably than parent hydrocarbon (5′XCGCGCG3′): 1.1 kcal/mol; log P [1]: 1.66 (0.10)

Further lines, with some results ahead:

Row | −G37 (XTGAGCTCA; marker c) | −H (XTGAGCTCA; marker c) | −S (XTGAGCTCA; marker c) | −G37 (XTGAGCTCA; marker d) | Tm (XACAGCTGT) | −ΔG37 (XACAGCTGT; Van't Hoff plots) | −ΔH (XACAGCTGT; Van't Hoff plots) | −ΔS (XACAGCTGT; Van't Hoff plots) | −ΔG37 (XACAGCTGT; [2]) | ΔΔG stacking (XACAGCTGT) | ΔTm (XACAGCTGT) | −H (XGTAGCTAC; marker c) | −S (XGTAGCTAC; marker c) | Tm ((dCGCGCG)2 core duplex) | −ΔG37 ((dCGCGCG)2 core duplex; Van't Hoff plots) | −ΔH ((dCGCGCG)2 core duplex; Van't Hoff plots) | −ΔS ((dCGCGCG)2 core duplex; Van't Hoff plots) | −ΔG37 ((dCGCGCG)2 core duplex; [2]) | ΔΔG stacking ((dCGCGCG)2 core duplex) | ΔTm ((dCGCGCG)2 core duplex) | Compound | further results
6 | 8.8 kcal | 46.7 kcal | 122 eu | 9.0 kcal | 47.8 °C | 9.3 ± 0.2 kcal | 53.6 kcal | 143 eu | 9.4 ± 0.2 kcal | 1.3 ± 0.2 | 7.9 °C | 52.5 kcal | 142 eu | 45.3 °C | 8.4 ± 0.2 kcal | 37.3 kcal | 104 eu | 8.6 ± 0.1 kcal | 0.4 ± 0.1 | 4.0 °C | OC[C@H]1O[C@@H](c2c(F)cc(F)cc2F)C[C@@H]1O [2,4,6-trifluorophenyl, 1′,2′-dideoxy-β-1′-(2,4,6-trifluorophenyl)-D-ribofuranose] | G stacking (XTGAGCTCA): 1.3; −G37 (XGTAGCTAC; marker c): 8.4 kcal; change in Tm stabilization on moving one fluorine from ortho to meta position ((dCGCGCG)2 core duplex; [3]): 6.8; change in stabilization free energy on moving one fluorine from ortho to meta position ((dCGCGCG)2 core duplex; [3]): 1.6 kcal
7 | 8.7 kcal | 48.6 kcal | 128 eu | 8.9 kcal | 47.3 °C | 9.3 ± 0.0 kcal | 55.2 kcal | 148 eu | 9.3 ± 0.2 kcal | 1.3 ± 0.1 | 7.0 °C | 56.5 kcal | 155 eu | 44.2 °C | 8.5 ± 0.2 kcal | 39.1 kcal | 99 eu | 8.7 ± 0.1 kcal | 0.5 ± 0.2 | 2.9 °C | OC[C@H]1O[C@@H](c2c(F)c(F)c(F)c(F)c2F)C[C@@H]1O [pentafluorophenyl, 1′,2′-dideoxy-β-1′-(pentafluorophenyl)-D-ribofuranose] | G stacking (XAGCGCT): 0.9; −G37 (XAGCGCT; marker c): 7.9 kcal; −H (XAGCGCT; marker c): 45.0 kcal; −S (XAGCGCT; marker c): 120 eu; ΔΔG stacking (stability contributed) ((dCGCGCG)2 core duplex): −0.5 kcalmol^−1

— patent publication US20060154889A1, “Polyfluorinated nucleoside analogs and methods of use thereof” (priority 2004, published 2006)
